Earlier results in patent US20100272800A1 (SANOVEL ILAC SANAYI VE TICARET ANONIM SIRKETI, priority 2009, published 2010).

Cc1cc2c(s1)Nc1ccccc1N=C2N1CCN(C)CC1 [Olanzapine, 2-methyl-4-(4-methyl-1-piperazinyl)-10H-thieno[2,3-b][1,5] benzodiazepine]
solubility in water: practically insoluble in water
